Results published in patent US20080194640A1, “Optically Active Tetrahydronaphthalene Derivative” (priority 2005, published 2008).
≈ marks a conversion by molar mass, not a printed value.

Assays:
[1] = Evaluation of biological availability (bioavailability) in rat; assay type: in vivo; settings: for AUC: rat, fasted female SD rats, plasma
Experimental: Free base•Form-I crystal was administered to female SD rats fasted from the day before the experiment and the plasma concentration was measured under the following conditions. As a result, the areas under blood concentration-time curve (AUC) of the drug after intravenous administration and oral administration are as shown in Table 1.
• Dosing formulation: 0.5 mg/ml in aqueous physiological saline. • Dose: 1 mg/2 ml/kg • Administration method: bolus administration from the tail vein Collection of blood samples: About 0.1-0.2 mL of blood was taken from the cervical vein at 3 min, 10 min, 30 min, 1 hr, 2 hr, 4 hr and 6 hr after administration. The blood was centrifuged, and the plasma was separated.
• Dosing formulation: 2 mg/ml suspension adjusted by gradually adding aqueous hydroxypropylmethylcellulose solution to the compound of the present invention thoroughly triturated in an agate mortar. • Dose: 10 mg/5 ml/kg • Administration method: Forcible administration into the stomach • Collection of blood samples: About 0.1-0.2 mL of blood was taken from the cervical vein at 30 min, 1 hr, 2 hr, 4 hr, 6 hr, 8 hr and 24 hr after administration. The blood was centrifuged, and the plasma was separated.
The plasma concentration of the administered compound was measured by LC-MS/MS.
LC conditions • Column: Capcellpak C18 UG-120 (2.0φ mm×50 mm, S-5 μm, Shiseido Co., Ltd.) • Mobile phase: acetonitrile • Flow rate: 0.25 mL/min • Column temperature: room temperature • Auto sampler temperature set to: 25° C. • Gradient setting: • 0 min→0.6 min:25%→25% • 0.6 min→3.6 min:25%→75% • 3.6 min→6 min:75%→75% • 6 min→6.1 min:75%→25% • 6.1 min→9.5 min:25%→25% • MS/MS conditions • Ionization method: ESI • Capillary temperature: 350° C. • Sheath gas pressure: 80 psi • Spray voltage: 4.5 kV.
The plasma concentration of the racemate was measured by a similar method, and the biological availability was calculated and found to be 20%.

[2] = tested on: C5a stimulated neutrophil; experiment: Production of reactive oxygen species in C5a-stimulated neutrophil; assay type: cell-based; settings: human neutrophil, C5a 3 nmol/L, luminol luminescence, 37° C.; read-out: IC50 value, inhibition of production of reactive oxygen species in C5a stimulated neutrophil
Experimental: A neutrophil fraction was separately taken from human peripheral venous blood using Lympholyte-poly (Cedarlane), and suspended in Hank's Balanced Salt Solution (HBSS, GIBCO BRL) containing 1% fetal bovine serum (FBS) and 1 mmol/L luminol (Wako Pure Chemical Industries, Ltd.). Reactive oxygen species was measured using a luminometer (MicroLumat, Berthold) for 96-well plate. […] Then, 25 μL of C5a (final concentration 3 nmol/L) was added and luminescence produced by the reaction of the luminol and the reactive oxygen species was measured with the lapse of time for 15 min. The rate of inhibition (% inhibition) of the production of reactive oxygen species in C5a stimulated neutrophil by the test compound was calculated by the following formula, wherein the peak value of the production of reactive oxygen species derived by C5a without addition of the test compound is Max, the peak value of the production of reactive oxygen species without addition of the test compound and without C5a stimulation is Min, and the peak value of the production of reactive oxygen species derived by C5a with the addition of the test compound is Test. […]

C5a receptor = target: T1, C5a receptor (Homo sapiens, UniProt P21730); experiment: C5a receptor binding assay ([125I]-human C5a, human peripheral blood neutrophil); settings: [125I]-C5a 200 pM, 4° C. for 2 hr, read-out: IC50 value, inhibition of [125I]-human C5a binding
T1 construct: neutrophil fraction was separated from human peripheral intravenous blood; endogenous in cells; host or cells: human peripheral blood neutrophils (whole cells)
T1 sequence (P21730 1-350): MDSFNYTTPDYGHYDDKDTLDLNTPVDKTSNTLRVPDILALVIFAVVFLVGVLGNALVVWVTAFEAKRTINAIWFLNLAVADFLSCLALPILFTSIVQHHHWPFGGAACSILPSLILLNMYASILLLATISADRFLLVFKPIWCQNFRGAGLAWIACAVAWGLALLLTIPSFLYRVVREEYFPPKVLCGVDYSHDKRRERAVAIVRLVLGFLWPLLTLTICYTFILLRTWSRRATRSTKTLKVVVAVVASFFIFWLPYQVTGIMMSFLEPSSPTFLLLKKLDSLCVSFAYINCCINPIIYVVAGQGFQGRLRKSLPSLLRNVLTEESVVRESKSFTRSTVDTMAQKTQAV
Experimental: The C5a receptor binding inhibitory action of C5a and the test compound was evaluated by a receptor binding assay comprising of human peripheral blood neutrophil, which expresses the C5a receptor, and [^125I]-human C5a (Amersham Pharmacia Biotech) in a MultiScreen (MILLIPORE). First, neutrophil fraction was separated from human peripheral intravenous blood using lympholyte-poly (Cedarlane), and suspended in a Binding buffer [50 mM HEPES, 1 mM CaCl2, 5 mM MgCl2, 0.5% bovine albumin (BSA, SIGMA), 0.02% NaN3 (pH 7.2)]. The binding assay was started by the addition of 1×10^5 cells/50 μL neutrophil suspension, 25 μL of a test compound solution (obtained by dissolving the test compound in N,N-dimethylformamide to a final concentration of 10 mmol/L and diluting with binding buffer), and 25 μL of [^125I]-C5a solution (final concentration 200 pM), to each well of the MultiScreen. […] After drying the MultiScreen, the radioactivity on the filter was measured using a gamma counter.
The rate of inhibition (% inhibition) of C5a binding by the test compound was calculated by the following formula using the count value obtained without addition of the test compound as Total, the count value obtained with addition of non-labeled C5a as Non, and the count value obtained with addition of the test compound as Test. […]

[3] = tested on: collagen-induced arthritis; experiment: Collagen-induced arthritis in monkey (articular swelling score); assay type: in vivo, cynomolgus monkey
[4] = Solubility test (Japanese Pharmacopoeia Solution 2); assay type: physicochemical; settings: for solubility after 30 min: Japanese Pharmacopoeia Solution 2, 37° C., shaken 30 min
Experimental: An adequate amount of a sample was taken, and a test solution (The Japanese Pharmacopoeia Solution 2) was added to each to a concentration of about 1 mg/ml. The sample was dispersed by ultrasonication for 2 min, shaken at 37° C. for 30 min, and the solution was filtered through DISMIC13HP ([…]). The filtrate in the early stage (3 ml) was removed, the subsequent filtrate (500 μl) was precisely measured, and the dilution solution (water/acetonitrile/trifluoroacetic acid mixture=500:500:1, 500 μl) was accurately added to give a sample solution. The sample solution and the standard solution prepared in Experimental Example 5 were subjected to the measurement under the similar HPLC conditions as in Experimental Example 5.

[5] = Dissolution test (JP Dissolution Test Method 2, paddle method); assay type: physicochemical; settings: JP second fluid 900 ml, paddle 50 rpm, 37° C., about 10 mg based on free form
Experimental: The compounds obtained in Examples 22, 24 and 25, free base•Form-I crystal, and the racemate of the compound of Example 3 were subjected to a dissolution test, and the dissolution rate was compared. According to this test method, the amount of dissolution relative to the content of each compound in the test solution is expressed in the dissolution rate (%), which was measured over time.
For the method of adding each compound, the compound (about 10 mg based on free form) was precisely weighed and directly added to a vessel. As the test solution, The Japanese Pharmacopoeia second fluid (900 ml) was used, and the test was performed according to The Japanese Pharmacopoeia Dissolution Test Method 2 (Paddle Method) at 50 rpm. The test temperature was 37° C. After the start of the test, solution for dissolution (10 ml) was taken at suitable times, and a test solution (10 ml) heated to 37° C. was soon carefully added for compensation. The collected solution for dissolution was passed through a filter (DISMIC 13HP PTFE (0.45 μm); Toyo Roshi Kaisha). The filtrate in the early stage (5 ml) was removed, the subsequent filtrate (500 μl) was precisely measured, and the dilution solution (water/acetonitrile/trifluoroacetic acid mixture=500:500:1, 500 μl) was accurately added to give a sample solution.
Separately, about 10 mg of the free base•Form-I crystal was precisely weighed, and a dilution solution (water/acetonitrile/trifluoroacetic acid mixture=500:500:1) was added to 50 ml sharp. This solution (2.5 ml) was precisely measured, and a dilution solution (water/acetonitrile/trifluoroacetic acid mixture=500:500:1) was added to 50 ml sharp. This was used as the standard solution of free base•Form-I crystal (10 μg/ml). The sample solution and the standard solution were measured under the HPLC conditions shown below, the peak areas AT and AS of the free base•Form-I crystal in each solution were measured, and the dissolution rate was determined by the following formula.
The nth dissolution rate (%) of free base•Form-I crystal=Wn/W100%×100 • W1: the first dissolution amount (mg) of free base•Form-I crystal
=(900×AT1)×WS/AS/1000 • Wn: the nth (n>1) dissolution amount (mg) of free base•Form-I crystal
={900×ATn+10×(AT1+AT2 . . . +ATn−1)}×WS/AS/1000 • W100%: cast amount (mg) of drug substance • Ws: collected amount (mg) of free base•Form-I crystal standard product • As: peak area of free base•Form-I crystal in standard solution • AT1: peak area of free base•Form-I crystal in sample solution by the first sampling • ATn: peak area of free base•Form-I crystal in sample solution by the nth sampling. • For racemate, the dissolution rate was calculated based on the total value of S form and R form. […]

## CCn1cc(CN(C(=O)[C@H]2CCCc3c(O)cccc32)c2ccc(C(C)C)nc2)cn1 [Example 3, (1S)-(−)-N-[(1-ethyl-1H-pyrazol-4-yl)methyl]-5-hydroxy-N-(6-isopropylpyridin-3-yl)-1,2,3,4-tetrahydronaphthalene-1-carboxamide]
[1]; female SD rats, oral 10 mg/kg vs intravenous 1 mg/kg
  biological availability: 62%
[1]; intravenous administration 1 mg/kg
  AUC: 264 ng·h/mL
[1]; oral administration 10 mg/kg
  AUC: 1640 ng·h/mL
[2]
  IC50: 2.8 nM
C5a receptor
  IC50: 10 nM
[3]; before administration, cynomolgus monkey, 10 per group, control group average 49
  articular swelling score, average: 49
[3]; day 14 of administration, oral, day 36 to day 50, control group average 82
  articular swelling score, average: 61
[3]; oral administration day 36 to day 50, cynomolgus monkey
  effect on aggravation of arthritis: significantly suppressed aggravation of arthritis
[4]; listed as free base•Form-I crystal
  solubility after 30 min: 66 µg/mL (≈ 158 µM)

## CCn1cc(CN(C(=O)[C@H]2CCCc3c(O)cccc32)c2ccc(C(C)C)nc2)cn1 [Example 22, (1S)-(−)-N-[(1-ethyl-1H-pyrazol-4-yl)methyl]-5-hydroxy-N-(6-isopropylpyridin-3-yl)-1,2,3,4-tetrahydronaphthalene-1-carboxamide]
[5]
  dissolution rate (comparison): faster than that of the free base•Form-I crystal

## CCn1cc(CN(C(=O)[C@H]2CCCc3c(O)cccc32)c2ccc(C(C)C)nc2)cn1 [Example 23, (1S)-(−)-N-[(1-ethyl-1H-pyrazol-4-yl)methyl]-5-hydroxy-N-(6-isopropylpyridin-3-yl)-1,2,3,4-tetrahydronaphthalene-1-carboxamide]
[4]; JP Solution 2, 37° C., 30 min
  solubility relative to free base•Form-I crystal: 2.5 fold
  solubility relative to the racemate: about 5 fold
[4]
  solubility after 30 min: 165 µg/mL (≈ 394 µM)

## CCn1cc(CN(C(=O)[C@H]2CCCc3c(O)cccc32)c2ccc(C(C)C)nc2)cn1.Cl [Example 24, (1S)-(−)-N-[(1-ethyl-1H-pyrazol-4-yl)methyl]-5-hydroxy-N-(6-isopropylpyridin-3-yl)-1,2,3,4-tetrahydronaphthalene-1-carboxamide monohydrochloride]
[5]
  dissolution rate (comparison): faster than that of the free base•Form-I crystal

## Br.CCn1cc(CN(C(=O)[C@H]2CCCc3c(O)cccc32)c2ccc(C(C)C)nc2)cn1 [Example 25, (1S)-(−)-N-[(1-ethyl-1H-pyrazol-4-yl)methyl]-5-hydroxy-N-(6-isopropylpyridin-3-yl)-1,2,3,4-tetrahydronaphthalene-1-carboxamide monohydrobromide]
[5]
  dissolution rate (comparison): faster than that of the free base•Form-I crystal
